Reference: patent publication US8629272B2, “Tricyclic pyrimidine derivatives as wnt antagonists” (Deutsches Krebsforschungszentrum, priority 2009, dated 2014)

System: human colon carcinoma cells HCT116
Assay: Antiproliferative activity against HCT116, cell count
Format: cell-based
Description: For examination of cell line-specific cytotoxicity, compounds were applied to human colorectal cancer cells (HCT116, denoted (1); SW480, denoted (2); Dld-1, denoted (3)) and human fibroblasts (HFF-1, denoted (4); HS-68, denoted (5)), cultured in Mc Coy's (1) and Dulbecco's Modified Eagles Medium (2-5), supplemented with 10% ((1)-(3)) and 20% ((4), (5)) fetal calf serum and 1% penicillin/streptomycin. Cells were grown in T75 flasks at 37° C., 5% CO2 and trypsinized when 60-80% confluent by adding 2 ml of 0.25% Trypsin-EDTA solution. Cells were then re-suspended into culture medium and approx. 750 cells, suspended in 45 microl medium, were plated into each well of a black 384-well plate for fluorescence imaging experiments. 24-36 hr later 5 microl compound solution (100 microM compound dissolved in ultra pure water containing 1% DMSO), were added to achieve a final concentration of 10 microM and were incubated for at least 72 hr. Compound incubation was terminated by (a) fixation and (b) permeabilisation of cells, followed by (c) fluorescence labeling of cell nuclei for cytometric quantification or by immunocytochemistry for microscopic evaluation of cell morphology. The three steps were performed by replacing the solution of the previous step in each well of a 384-well plate by (a) 30 microl PBS (phosphate buffered saline) containing 5% PFA (paraformaldehyde), (b) 30 microl PBS containing 0.2% TritonX-100 and (c) 10 microl PBS containing Hoechst-33342 for cytometry or Hoechst-33342, FITC (fluorescein isothiocyanate-) labeled α-tubulin antibodies and TRITC-(tetramethylrhodamine isothiocyanate-) labeled phalloidin antibodies for microscopy. Solutions were incubated for 15 (a,b) and 30 min (c) in the dark at room temperature. Cells were washed twice between each step with 30 microl PBS. The assay system was miniaturized and adapted to automated workflow using liquid-handling robotics.
Cell line-specific cytotoxicity was quantified by counting the number of Hoechst labeled nuclei per well of a 384-well plate using a plate cytometer. Data obtained with the cytometer was analysed using standard data analysis software.
The examination of the antiproliferative activity against human colon carcinoma cells HCT116 was carried out in analogy to example 35. […] Compounds of the present invention have potent antiproliferative activity against human colon carcinoma cells as shown for HCT116 in Table 6.

Row | Structure (SMILES) | Normalized cell count (HCT 116) (0.005 microM) | Normalized cell count (HCT 116) (0.015 microM) | Normalized cell count (HCT 116) (0.046 microM) | Normalized cell count (HCT 116) (0.137 microM) | Normalized cell count (HCT 116) (0.412 microM) | Normalized cell count (HCT 116) (1.235 microM) | Normalized cell count (HCT 116) (3.704 microM) | Normalized cell count (HCT 116) (11.111 microM) | Normalized cell count (HCT 116) (33.333 microM) | Normalized cell count (HCT 116) (100.000 microM)
1 | CCOC(=O)C1=C(C)Nc2c(c3nnc(-c4cccc(OC)c4)n3c(=O)n2-c2ccccc2)C1c1ccccc1 (stereo not drawn) [Example 15, 3-(3-Methoxy-phenyl)-7-methyl-4-oxo-5,9-diphenyl-4,5,6,9-tetrahydro-1,2,3a,5,6-pentaaza-cyclopenta[a]naphthalene-8-carboxylic acid ethyl ester] | 1 | 1.039 | 1.013 | 0.9313 | 0.9219 | 0.865 | 0.7235 | 0.2716 | 0.257 | 0.1496
2 | CCOC(=O)C1=C(c2ccccc2)c2c(n(-c3ccccc3)c(=O)n3c(-c4cccc(OC)c4)nnc23)NC1C (stereo not drawn) [Example 16, 3-(3-Methoxy-phenyl)-7-methyl-4-oxo-5,9-diphenyl-4,5,6,7-tetrahydro-1,2,3a,5,6-pentaaza-cyclopenta[a]naphthalene-8-carboxylic acid ethyl ester] | 1 | 1.063 | 1.163 | 1.06 | 1.067 | 1.125 | 1.2 | 1.231 | 0.52 | 0.5801
3 | CCOC(=O)C1=C(c2ccccc2)c2c(n(-c3ccccc3)c(=O)n3c(-c4ccc(OC)cc4)nnc23)NC1C (stereo not drawn) [Example 18] | 1 | 0.9377 | 0.9859 | 0.8603 | 0.9166 | 0.8399 | 0.4154 | 0.1595 | 0.1555 | 0.1892
